Where two headings read alike, the source gives them in different places. Marks after values point to notes of the source that are not given here.
Columns and labels:
[1] = Inhibition of linoleic acid lipid peroxidation (AAPH); settings: % inhibition at 100 μM; pH 7.4, 37 °C
Method: Production of conjugated diene hydroperoxide by oxidation of sodium linoleate in an aqueous dispersion is monitored at 234 nm. AAPH is used as a free radical initiator [12, 24]. Ten microlitres of the 16 mM sodium linoleate solution was added to the UV cuvette containing 930 μL of 0.05 M phosphate buffer, pH 7.4 prethermostated at 37 °C. The oxidation reaction was initiated at 37 °C under air by the addition of 40 mM AAPH solution (50 μL). Ten μL of the tested compounds were added in the mixture. Lipid oxidation was measured in the presence of the same level of DMSO. The rate of oxidation at 37 °C was monitored by recording the increase in absorption at 234 nm caused by conjugated diene hydroperoxides. The results were compared to the appropriate standard inhibitor trolox (63%) (Table 1).

[2] = molecular target: T1, pancreatic bovine trypsin (Bos taurus, UniProt P00760); assay: Inhibition of trypsin induced proteolysis in vitro; format: biochemical; settings: for inhibition at 100 µM: read-out: % Trypsin Inh.; for IC50: read-out: IC50 μM Trypsin Inh.; for inhibition at 100 µM / % Trypsin Inh.: % inhibition at 100 μM
T1 construct: purchased Sigma Chemical, Co. (St. Louis, MO, USA)
T1 sequence (P00760 24-246): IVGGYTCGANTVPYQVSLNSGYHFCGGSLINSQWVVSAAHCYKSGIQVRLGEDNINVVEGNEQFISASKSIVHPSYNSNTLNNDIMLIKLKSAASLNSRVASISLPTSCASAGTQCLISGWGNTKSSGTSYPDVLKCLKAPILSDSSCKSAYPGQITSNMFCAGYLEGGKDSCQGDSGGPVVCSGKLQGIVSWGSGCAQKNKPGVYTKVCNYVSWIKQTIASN
Description: All chemicals, solvents, chemical and biochemical reagents were of analytical grade and purchased from commercial sources (Merck, Merck KGaA, Darmstadt, Germany, Fluka Sigma-Aldrich Laborchemikalien GmbH, Hannover, Germany, Alfa Aesar, Karlsruhe, Germany and Sigma, St. Louis, MO, USA). Soybean lipoxygenase, pancreatic bovine trypsin, sodium linoleate, free radical DPPH and 2,2-azinobis-2-methyl-propanimidamine HCl (AAPH) were obtained from Sigma Chemical, Co. (St. Louis, MO, USA), carrageenin, type K, was commercially available. All starting materials were obtained from commercial sources and used without further purification.
The test was carried out according to a modified Kunitz method. Bovine albumin was used as substrate for trypsin. The reaction mixture consisted of 0.075 mg/mL trypsin (200 μL) and 780 μL of phosphate buffer pH 7.6 (including the tested compounds (20 μL in DMSO, final concentration 100 μM) preincubated at 37 °C for 20 min and then 1 mL of albumin (stock solution 6 g/100 mL in phosphate buffer 0.1 M, pH 7.6) was added and incubated at 37 °C for 30 min. After the incubation 1 mL of 5% trichloroacetic acid was added to the incubated solution to stop the enzyme’s reaction and allowed to set at room temperature for 1 h. Then the solution was filtered by filter paper and the absorption of the filtered solution was measured at 280 nm. Salicylic acid was used as a reference compound (Table 1).

[3] = Lipophilicity as RM values by RP-TLC; format: physicochemical; settings: methanol/water 70/30, 24 °C, average of at least five measurements
Description: Since lipophilicity is a significant physicochemical property determining distribution, bioavailability, metabolic activity and elimination, we tried to determine experimentally the lipophilicity of the new substances by a RPTLC method as RM values (Table 1) and to compare them with the corresponding theoretically calculated clog p values in n-octanol-buffer. This is considered to be a reliable, fast and convenient method for expressing lipophilicity. Lipophilicity (Table 2), was theoretically calculated as Clog p values in n-octanol-buffer by the CLOGP Programme of Biobyte Corp..
Reversed phase TLC (RP-TLC) was performed on silica gel plates impregnated with 5% (v/v) liquid paraffin in light petroleum ether. The mobile phase was a methanol/water mixture (70/30, v/v). The plates were developed in closed chromatography tanks saturated with the mobile phase at 24 °C. Spots were detected under UV light. RM values were determined from the corresponding Rf values (from five individual measurements) using the equation RM = log [(1/Rf) − 1] (Table 1).

[4] = molecular target: T2, soybean lipoxygenase (Glycine max, UniProt P08170); assay: Soybean lipoxygenase inhibition in vitro; format: biochemical; settings: for inhibition at 100 µM: read-out: % LOX Inh.
T2 construct: purchased Sigma Chemical, Co. (St. Louis, MO, USA)
T2 sequence (P08170 1-839): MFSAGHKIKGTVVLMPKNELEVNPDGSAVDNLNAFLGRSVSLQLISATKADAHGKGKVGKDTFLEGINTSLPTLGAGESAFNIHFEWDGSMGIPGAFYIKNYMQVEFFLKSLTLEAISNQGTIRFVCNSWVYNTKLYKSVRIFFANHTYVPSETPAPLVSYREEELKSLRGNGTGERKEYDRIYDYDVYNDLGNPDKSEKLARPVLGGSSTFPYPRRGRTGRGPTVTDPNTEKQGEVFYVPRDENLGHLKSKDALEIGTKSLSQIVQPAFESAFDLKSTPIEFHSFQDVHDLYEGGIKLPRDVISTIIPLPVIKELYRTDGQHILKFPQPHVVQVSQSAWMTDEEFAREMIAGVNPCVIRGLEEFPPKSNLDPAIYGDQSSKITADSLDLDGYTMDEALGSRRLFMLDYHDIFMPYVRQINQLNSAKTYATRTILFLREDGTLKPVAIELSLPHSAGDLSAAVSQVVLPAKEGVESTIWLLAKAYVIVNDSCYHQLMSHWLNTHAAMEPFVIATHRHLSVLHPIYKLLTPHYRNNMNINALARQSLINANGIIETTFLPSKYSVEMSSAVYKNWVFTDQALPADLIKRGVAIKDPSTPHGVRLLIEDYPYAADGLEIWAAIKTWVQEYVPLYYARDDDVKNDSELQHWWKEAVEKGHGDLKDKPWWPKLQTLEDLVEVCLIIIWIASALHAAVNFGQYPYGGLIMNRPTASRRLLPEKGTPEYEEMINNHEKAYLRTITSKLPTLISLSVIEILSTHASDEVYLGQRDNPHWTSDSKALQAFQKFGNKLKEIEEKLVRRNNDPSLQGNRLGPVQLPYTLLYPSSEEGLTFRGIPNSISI
Method: DMSO solution of the tested compound was incubated with sodium linoleate (0.1 mM) and 0.2 mL of soybean lipoxygenase solution (1/9 × 10^−4 w/v in saline) in buffer pH 9 (tris) and at room temperature. […] The results are given in Table 1 expressed as IC50 values or % inhibition at 100 μM.

[5] = test system: acetic acid-induced writhing; assay: Antinociceptive screen (writhing test); format: in vivo, Wistar rats; settings: i.p. 30 min before 0.6% acetic acid, writhes counted over 30 min; for inhibition in vivo at 0.01 mmol/0.1 kg: Rattus norvegicus, ip, 0.5 h, read-out: % ANA (in vivo analgesic-antinociceptive activity)
Method: Anti-inflammatory tests were conducted on Fisher-344 inbred rats of ca. 200 g body weight whereas antinociception and motor and sensory functions after sciatic nerve crash were performed on Wistar rats. Both sexes were used. Females pregnant were excluded. Each group was composed of 6 animals. The animals, which have been bred in our laboratory, were housed under standard conditions and received a diet of commercial food pellets and water ad libitum during the maintenance. Our studies were carried out in accordance with recognised guidelines on animal experimentation.
[…] Controls received the liquid vehicle only. All the in vivo experiments were repeated at least in triplicate and were subjected to statistic analysis using the student’s t-test.
The writhing reflex was used. The test compounds were administered i.p. 30 min prior to the i.p. administration of 1 mL/100 g body weight of 0.6% acetic acid. […] After 5 min, the number of stretches characterized by repeated contractions of the abdominal musculature accompanied by extension of the hind limbs was counted every 5 min for the next 30 min. […] The % antinociceptive activity (a:a) was calculated as: % a:a = (n − n'/n) × 100 (a: a analgesic activity, n average number of writhes of control group, n' average number in the test group).

[6] = sodium linoleate 0.1 mM, tris buffer pH 9, room temperature, read-out: IC50 μM LOX Inh.
[7] = sodium linoleate 0.1 mM, tris buffer pH 9, room temperature
[8] = bovine albumin substrate, pH 7.6, 37 °C

Structure (SMILES) | AAPH % (% inhibition of lipid peroxidation) [1] | RM (±S.D.) [3] | inhibition in vivo at 0.01 mmol/0.1 kg [5] | IC50 [2, 8] | IC50 [4] | further results
CCOC(=O)c1ccc(N)cc1 [Benzocaine, reference compound] | 25% |  |  |  |  | inhibition at 100 µM [2]: 28%
CC(=O)Nc1ccc(OC(=O)/C=C/c2ccccc2)cc1 [Compound 1a, (E) 4-Acetamidophenyl cinnamate] | 95% | −0.725 ± 0.009 | 77.3% |  |  | IC50 [4, 6]: 10 µM; inhibition at 100 µM [2]: 34%
O=C(/C=C/c1cccc(Oc2ccccc2)c1)Oc1ccc2ccc(=O)oc2c1 [Compound 2c, (E)-2-Oxo-2H-chromen-7-yl 3-(3-phenoxyphenyl)acrylate] | 93% | 0.444 ±0.008 | 70.4% | 10 µM |  | inhibition at 100 µM [4]: 20%; IC50 μM LOX Inh. [4, 7]: low or no activity
Cc1cc(=O)oc2cc(OC(=O)/C=C/c3cccc(Oc4ccccc4)c3)ccc12 [Compound 2d, (E)-4-Methyl-2-oxo-2H-chromen-7-yl 3-(3-phenoxyphenyl)acrylate] | 97% | 0.558 ± 0.040 | 66% | 10 µM | 74 µM | 
CC(=O)Nc1cccc(OC(=O)/C=C/c2cccc(Oc3ccccc3)c2)c1 [Compound 2e, 3-Acetamidophenyl (E)-3-(3-phenoxyphenyl)acrylate] | 60% | 0.407 ± 0.015 | 98.1% |  |  | IC50 [4, 6]: 0.34 µM; % ANA (in vivo analgesic-antinociceptive activity) ([5]; 0.01 mmol/0.1 kg): 98.1 ** %
O=C(/C=C/c1cccc(Oc2ccccc2)c1)Nc1ccc(O)cc1 [Compound 2f, (E)-N-(4-Hydroxyphenyl)-3-(3-phenoxyphenyl)acrylamide] | 100% | −0.116 ± 0.003 |  | 26 µM |  | IC50 μM LOX Inh. [4, 7]: low or no activity
O=C(/C=C/c1cccc(Oc2ccccc2)c1)Nc1cccc(OC(=O)/C=C/c2cccc(Oc3ccccc3)c2)c1 [Compound 2g] | 60% | 1.092 ± 0.044 |  | 43.6 µM | 72 µM | 
CCOC(=O)c1ccc(NC(=O)/C=C/c2cccc(Oc3ccccc3)c2)cc1 [Compound 2h, (E)-Ethyl 4-(3-(3-phenoxyphenyl)acrylamido)benzoate] | 64% | 0.399 ± 0.045 |  | 50 µM | 100 µM | 
CC(=O)Nc1ccc(OC(=O)/C=C/c2ccc(OCc3ccc(Br)cc3)cc2)cc1 [Compound 3a, (E)-4-Acetamidophenyl 3-(4-((4-bromobenzyl)oxy)phenyl)acrylate] | 96% | −0.24 ± 0.009 | 52% | 100 µM | 55 µM | 
Cc1cc(=O)oc2cc(OC(=O)/C=C/c3ccc(OCc4ccc(Br)cc4)cc3)ccc12 [Compound 3b, (E)-4-Methyl-2-oxo-2H-chromen-7-yl-3-(4-((4-bromobenzyl)oxy)phenyl)acrylate] | 90% | −0.602 ± 0.01 |  | 5 µM | 50 µM | 
CC(=O)Nc1ccc(OC(=O)/C=C/c2cccs2)cc1 [Compound 4a, (E)-4-Acetamidophenyl 3-(thiophen-2-yl)acrylate] | 95% | −0.826 ± 0.05 |  |  |  | inhibition at 100 µM [4]: 16%; IC50 μM LOX Inh. [4, 7]: low or no activity; IC50 μM Trypsin Inh. [2, 8]: low or no activity
O=c1ccc2ccc(O)cc2o1 [Compound 7-HC, 7-hydroxycoumarin, reference compound] | 92% |  |  | 100 µM |  | 
O=c1ccc2ccccc2o1 [Coumarin, reference compound] |  |  |  |  |  | inhibition at 100 µM [2]: 13%
Cc1cc(=O)oc2cc(O)ccc12 [Hymechromone, 4-methyl-7-hydroxycoumarin, reference compound] | 93% |  |  |  |  | inhibition at 100 µM [2]: 60%
O=C(O)/C=C/c1ccccc1 [I] | 78% | −0.485 ± 0.044 | 60.2% | 55 µM | 56 µM | 
Cc1c(C)c2c(c(C)c1O)CCC(C)(C(=O)O)O2 (stereo not shown) [Trolox, reference compound] | 63% |  |  |  |  | 
Nc1cccc(O)c1 [m-AP, m-aminophenol, reference compound] | 95% |  |  |  |  | % Trypsin Inh. [2]: 90%
Nc1ccc(O)cc1 [p-AP, p-aminophenol, reference compound] | 99% |  |  |  |  | % Trypsin Inh. [2]: 87%

Source: PMC6271731, “Multitarget Molecular Hybrids of Cinnamic Acids” (Molecules, 2014)
